Data published in PMC3265452 (PLoS Neglected Tropical Diseases, 2012).
Counter-ions that a name gives are not always drawn.

Biological target: AaDOP2 (Aedes aegypti, UniProt H6D5H2)
Test: AaDOP2 antagonist screen of the LOPAC1280 library (HEK-CRELuc-Aadop2 cells, luminescence)
Assay type: cell-based
Conditions: not given

AaDOP2, sequence (H6D5H2 1-476): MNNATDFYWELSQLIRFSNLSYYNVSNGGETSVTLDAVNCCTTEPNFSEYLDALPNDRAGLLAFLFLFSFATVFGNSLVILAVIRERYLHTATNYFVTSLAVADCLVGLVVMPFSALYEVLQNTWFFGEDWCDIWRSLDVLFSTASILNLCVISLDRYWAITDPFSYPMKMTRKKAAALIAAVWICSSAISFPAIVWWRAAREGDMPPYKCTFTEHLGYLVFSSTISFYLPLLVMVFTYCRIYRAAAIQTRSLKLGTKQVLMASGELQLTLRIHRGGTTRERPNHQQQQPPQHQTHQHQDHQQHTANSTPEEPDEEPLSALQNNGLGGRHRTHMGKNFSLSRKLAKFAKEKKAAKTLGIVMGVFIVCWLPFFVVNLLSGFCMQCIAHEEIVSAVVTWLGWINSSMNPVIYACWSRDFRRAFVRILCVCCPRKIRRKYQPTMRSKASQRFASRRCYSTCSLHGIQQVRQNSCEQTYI

Row | SMILES | Compound effect (percent receptor signaling in presence of test compound, relative lux units relative to the SCH23390 control)
1 | Cl.O=C(OC1CCN(CCCl)CC1)C(c1ccccc1)c1ccccc1 [Compound 461, 4-Diphenylacetoxy-N-(2-chloroethyl)piperidine hydrochloride] | 99
2 | NCCCCCCCCCCN [Compound 462, 1,10-Diaminodecane] | 99
3 | Br.CO[C@H]1CC=C2CCN3CCC4=C(CC(=O)OC4)[C@]23C1 [Compound 463, Dihydro-beta-erythroidine hydrobromide] | 103
4 | COc1cc(C[C@@H](C)N)c(OC)cc1I.Cl [Compound 464, ( R)-(-)-DOI hydrochloride] | 69
5 | CC(C)[C@@]1(NC(=O)[C@@H]2C[C@@H]3c4cccc5[nH]cc(c45)C[C@H]3N(C)C2)O[C@@]2(O)[C@@H]3CCCN3C(=O)[C@H](Cc3ccccc3)N2C1=O.CS(=O)(=O)O [Compound 465, Dihydroergocristine methanesulfonate] | 32
6 | Nc1cc(=O)[nH]c(N)n1 [Compound 466, 2,6-Diamino-4-pyrimidinone] | 114
7 | CN1C2CCC1CC(OC(c1ccc(F)cc1)c1ccc(F)cc1)C2.Cl (stereo not drawn) [Compound 468, 4',4''-Difluor-3alpha-(diphenylmethoxy)tropane hydrochloride] | 123
8 | CC(C)C[C@H](NC(=O)[C@H](O)[C@H](N)Cc1ccccc1)C(=O)O [Compound 471, Epibestatin hydrochloride] | 107
9 | CCc1cccc2c3c([nH]c12)C(CC)(CC(=O)O)OCC3 (stereo not shown) [Compound 472, Etodolac] | 98
10 | CSc1ccc(C(=O)c2[nH]c(=O)[nH]c2C)cc1 [Compound 473, Enoximone] | 103
11 | COc1cc([C@@H]2c3cc4c(cc3[C@@H](O[C@@H]3O[C@@H]5CO[C@@H](C)O[C@H]5[C@H](O)[C@H]3O)[C@H]3COC(=O)[C@H]23)OCO4)cc(OC)c1O [Compound 474, Etoposide] | 90
12 | CCOC(=O)c1cnc2c(cnn2CC)c1NN=C(C)C [Compound 476, Etazolate hydrochloride] | 136
13 | CC[C@H]1CN2CCc3cc(OC)c(OC)cc3[C@@H]2C[C@@H]1C[C@H]1NCCc2cc(OC)c(OC)cc21 [Compound 478, Emetine dihydrochloride hydrate] | 14
14 | CC(C)C[C@H](NC(=O)[C@H]1O[C@@H]1C(=O)O)C(=O)NCCCCN=C(N)N [Compound 480, E-64] | 112
15 | CN[C@@H](C)[C@H](O)c1ccccc1.CN[C@@H](C)[C@H](O)c1ccccc1.O=S(=O)(O)O [Compound 483, (-)-Ephedrine hemisulfate] | 60
16 | CC[N+](C)(C)c1cccc(O)c1 [Compound 484, Edrophonium chloride] | 118
17 | CCC1(C2=NCCN2)Cc2ccccc2O1 (stereo not shown) [Compound 485, Efaroxan hydrochloride] | 74
18 | Cc1c2ccncc2c(C)c2c1[nH]c1ccccc12 [Compound 486, Ellipticine] | 98
19 | O=c1c2ccccc2[se]n1-c1ccccc1 [Compound 487, Ebselen] | 102

Row | SMILES | Compound effect (percent receptor signaling in presence of test compound, relative lux units relative to the SCH23390 control)
20 | CCN1C(=O)C=CC1=O [Compound 490, N-Ethylmaleimide] | 87
21 | O=C(O)CN(CCOCCOCCN(CC(=O)O)CC(=O)O)CC(=O)O [Compound 492, Ethylene glycol-bis(2-aminoethylether)-N,N,N',N'-tetraacetic acid] | 121
22 | CCC1(C)CC(=O)NC1=O (stereo not shown) [Compound 494, Ethosuximide] | 146
23 | O=C(O)[C@@H]1[C@H](C(=O)O)[C@H]2CC[C@@H]1O2 [Compound 495, Endothall] | 117
24 | Cc1cc(O)c2c(c1)C(=O)c1cc(O)cc(O)c1C2=O [Compound 496, Emodin] | 49
25 | CNC(=O)Oc1ccc2c(c1)[C@]1(C)CCN(C)[C@@H]1N2C [Compound 497, (-)-Physostigmine] | 93
26 | CCCN(CC1CC1)c1nc(C)nc(Nc2c(Cl)cc(Cl)cc2Cl)c1Cl [Compound 498, NBI 27914] | 90
27 | C[C@]12CC[C@@H]3c4ccc(O)cc4CC[C@H]3[C@@H]1CC[C@@H]2O [Compound 499, beta-Estradiol] | 112
28 | C[C@]12CC[C@@H]3c4ccc(O)cc4CC[C@H]3[C@@H]1CCC2=O [Compound 500, Estrone] | 91
29 | COC(=O)c1cc2c(cn1)[nH]c1ccccc12 [Compound 501, Methyl beta-carboline-3-carboxylate] | 118
30 | CNC(=O)c1cc2c(cn1)[nH]c1ccccc12 [Compound 502, N-Methyl-beta-carboline-3-carboxamide] | 80
31 | CCc1c(C(=O)OC)ncc2[nH]c3cc(OC)c(OC)cc3c12 [Compound 503, Methyl 6,7-dimethoxy-4-ethyl-beta-carboline-3-carboxylate] | 79
32 | CC(C)[C@@]1(NC(=O)[C@@H]2C=C3c4cccc5[nH]cc(c45)C[C@H]3N(C)C2)O[C@@]2(O)[C@@H]3CCCN3C(=O)[C@H](Cc3ccccc3)N2C1=O [Compound 508, Ergocristine] | 100
33 | NC(=O)OCC(COC(N)=O)c1ccccc1 [Compound 509, Felbamate] | 113
34 | CC(Cc1ccc(O)cc1)NCC(O)c1cc(O)cc(O)c1 (stereo not shown) [Compound 511, Fenoterol hydrobromide] | 136
35 | CNCC[C@H](Oc1ccc(C(F)(F)F)cc1)c1ccccc1.Cl [Compound 512, S-(+)-Fluoxetine hydrochloride] | 77
36 | CNCC[C@@H](Oc1ccc(C(F)(F)F)cc1)c1ccccc1.Cl [Compound 513, R-(-)-Fluoxetine hydrochloride] | 79
37 | COCCCC/C(=N\OCCN)c1ccc(C(F)(F)F)cc1 [Compound 514, Fluvoxamine maleate] | 114
38 | COc1ccc2c(c1)c(CC(=O)O)c(C)n2Cc1ccc(F)cc1 [Compound 515, 1-(4-Fluorobenzyl)-5-methoxy-2-methylindole-3-acetic acid] | 103

Same assay, conditions: 10 µM compound, 300 nM dopamine, 2 hr; hit = compound effect <20

Row | SMILES | Compound effect (percent receptor signaling in presence of test compound, relative lux units relative to the SCH23390 control) [%]
39 | O=C(O)c1cc(=O)c2c(Cl)cc(Cl)cc2[nH]1 [Compound 460, 5,7-Dichlorokynurenic acid] | 102
40 | CCCN1CCC[C@@H](c2cccc(C#N)c2)C1.Cl [Compound 469, S(-)-DS 121 hydrochloride] | 94
41 | CCN(CC)C(=O)c1ccc(O)c(OC)c1 [Compound 470, Vanillic acid diethylamide] | 101
42 | CCCCCCCCCCCCCCCCCCOCC(COP(=O)([O-])OCC[N+](C)(C)C)OC (stereo not shown) [Compound 475, ET-18-OCH3] | 113
43 | Nc1ncnc2c1c(-c1ccc(Oc3ccccc3)cc1)cn2C1CCCC1 [Compound 477, 7-Cyclopentyl-5-(4-phenoxy)phenyl-7H-pyrrolo[2,3-d]pyrimidin-4-ylamine] | 76
44 | Br.CCSC(=N)N [Compound 482, S-Ethylisothiourea hydrobromide] | 104
45 | CCc1cc(Cl)c(OC)c(C(=O)NC[C@@H]2CCCN2CC)c1O.Cl [Compound 505, S-(-)-Eticlopride hydrochloride] | 85
46 | OC[C@H]1O[C@@H](n2cnc3c(N[C@H]4CC5CCC4C5)ncnc32)[C@H](O)[C@@H]1O (stereo partly drawn) [Compound 506, (S)-ENBA] | 112
47 | CCCCCCC(C(C)O)n1cnc2c(N)ncnc21.Cl (stereo not drawn) [Compound 507, erythro-9-(2-Hydroxy-3-nonyl)adenine hydrochloride] | 128
48 | CC(=O)O[C@H]1C[C@@]2(C)[C@@H](C[C@@H](O)[C@H]3[C@@]4(C)CC[C@@H](O)[C@@H](C)[C@@H]4CC[C@@]32C)/C1=C(\CCC=C(C)C)C(=O)[O-].[Na+] [Compound 510, Fusidic acid sodium] | 131

Same assay, conditions: read-out: % of the SCH23390 effect (percent inhibition of receptor response relative to the SCH23390 control)

Row | SMILES | inhibition at 10 µM [%]
49 | CC[C@H]1CN2CCc3cc(OC)c(OC)cc3[C@@H]2C[C@@H]1C[C@H]1NCCc2cc(OC)c(OC)cc21 [Compound 478, Emetine dihydrochloride hydrate] | 86
